Reference: ChEMBL document CHEMBL1828524, “Monoamine oxidase inhibition by selected anilide derivatives” (Eur J Med Chem, 2011)

Key:
[1] = biological target: T1, Amine oxidase [flavin-containing] B (Homo sapiens, UniProt P27338); test: Inhibition of human recombinant MAO-B assessed as oxidation of kynuramine to 4-hydroxyquinoline after 20 mins
T1 sequence (P27338 whole entry): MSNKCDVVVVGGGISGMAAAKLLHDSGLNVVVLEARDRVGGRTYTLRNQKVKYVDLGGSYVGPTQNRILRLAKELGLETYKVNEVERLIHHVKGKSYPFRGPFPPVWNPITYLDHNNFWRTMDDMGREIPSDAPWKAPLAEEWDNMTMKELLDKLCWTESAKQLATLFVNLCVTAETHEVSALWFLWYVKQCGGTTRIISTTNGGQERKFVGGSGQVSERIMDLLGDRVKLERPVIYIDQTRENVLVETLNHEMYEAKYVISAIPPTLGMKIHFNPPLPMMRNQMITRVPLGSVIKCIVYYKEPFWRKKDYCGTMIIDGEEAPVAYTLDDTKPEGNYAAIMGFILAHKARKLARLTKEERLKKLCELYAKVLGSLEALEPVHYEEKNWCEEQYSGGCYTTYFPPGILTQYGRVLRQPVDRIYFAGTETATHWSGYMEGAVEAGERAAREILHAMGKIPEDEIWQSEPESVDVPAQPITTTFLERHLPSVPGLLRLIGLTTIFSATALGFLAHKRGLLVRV

[2] = biological target: T2, Amine oxidase [flavin-containing] A (Homo sapiens, UniProt P21397); test: Inhibition of human recombinant MAO-A assessed as oxidation of kynuramine to 4-hydroxyquinoline after 20 mins
T2 sequence (P21397 whole entry): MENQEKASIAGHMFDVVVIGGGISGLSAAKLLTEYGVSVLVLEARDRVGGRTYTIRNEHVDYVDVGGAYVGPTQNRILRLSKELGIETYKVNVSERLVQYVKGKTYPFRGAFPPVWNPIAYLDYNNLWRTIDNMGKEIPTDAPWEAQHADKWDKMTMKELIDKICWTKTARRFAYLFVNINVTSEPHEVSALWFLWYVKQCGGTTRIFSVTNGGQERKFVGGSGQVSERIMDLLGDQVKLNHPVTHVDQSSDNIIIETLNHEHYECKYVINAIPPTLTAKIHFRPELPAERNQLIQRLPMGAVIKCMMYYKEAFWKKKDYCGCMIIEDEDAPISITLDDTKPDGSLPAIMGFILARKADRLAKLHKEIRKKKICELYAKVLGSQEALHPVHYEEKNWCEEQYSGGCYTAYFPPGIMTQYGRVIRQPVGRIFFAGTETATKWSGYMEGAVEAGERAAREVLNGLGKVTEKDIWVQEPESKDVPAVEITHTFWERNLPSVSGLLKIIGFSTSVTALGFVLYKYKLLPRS

[3] = biological target: T2, Amine oxidase [flavin-containing] A; test: Inhibition of human recombinant MAO-A assessed as oxidation of kynuramine to 4-hydroxyquinoline at 100 uM after 20 mins

IC50 [1]	IC50 [2]	inhibition (INH) [3]	SMILES
5.16 µM	–	Not Active	O=C(/C=C/C=C/c1ccccc1)Nc1ccccc1
2.73 µM	105 µM	–	O=C(/C=C/C=C/c1ccccc1)Nc1cccc(Br)c1
0.289 µM	36.2 µM	–	N#Cc1ccc(/C=C/C(=O)Nc2cccc(Br)c2)cc1
0.026 µM	35.6 µM	–	O=C(/C=C/c1ccc(O)cc1)Nc1cccc(Br)c1
33.2 µM	297 µM	–	O=C(C/C=C/c1ccccc1)Nc1ccccc1
30.9 µM	34.5 µM	–	O=C(C/C=C/c1ccccc1)Nc1cccc(Br)c1

The next lines start with the compound.

SMILES	IC50 [1]	IC50 [2]	inhibition (INH) [3]
O=C(/C=C/C=C/c1ccccc1)Nc1cccc(Cl)c1	2.2 µM	98.2 µM	–
Cc1cccc(NC(=O)C/C=C/c2ccccc2)c1	48.1 µM	74.8 µM	–
O=C(/C=C/c1cccc(O)c1)Nc1cccc(Br)c1	1.01 µM	–	Not Active
O=C(C/C=C/c1ccccc1)Nc1cccc(Cl)c1	23.5 µM	58.4 µM	–
N#Cc1cccc(/C=C/C(=O)Nc2cccc(Br)c2)c1	0.059 µM	27.2 µM	–
N#Cc1cccc(/C=C/C(=O)Nc2cccc(Cl)c2)c1	0.09 µM	13.5 µM	–
Cc1cccc(NC(=O)/C=C/C=C/c2ccccc2)c1	6.65 µM	335 µM	–
O=C(/C=C/c1ccccc1)Nc1cccc(Br)c1	0.447 µM	16.7 µM	–
Cc1cccc(NC(=O)/C=C/c2ccccc2)c1 [N-M-TOLYLCINNAMAMIDE]	4.5 µM	48.1 µM	–
N#Cc1ccc(/C=C/C(=O)Nc2cccc(Cl)c2)cc1	0.407 µM	184 µM	–
